Assay results from publication PMC3629922 (ACS medicinal chemistry letters, 2013).

How the values were obtained:
[1] = test system: D2 receptor; conditions: cited from earlier work
[2] = target: T1, 5-HT2B receptor (Homo sapiens, UniProt P41595); assay: 5-HT2B functional assay using HTRF quantitation of IP1 accumulation; assay type: cell-based
[3] = target: T2, D4 (Homo sapiens, UniProt P21917); assay: D4 functional assay; assay type: cell-based; conditions: performed at the PDSP
T2 sequence (P21917 1-419): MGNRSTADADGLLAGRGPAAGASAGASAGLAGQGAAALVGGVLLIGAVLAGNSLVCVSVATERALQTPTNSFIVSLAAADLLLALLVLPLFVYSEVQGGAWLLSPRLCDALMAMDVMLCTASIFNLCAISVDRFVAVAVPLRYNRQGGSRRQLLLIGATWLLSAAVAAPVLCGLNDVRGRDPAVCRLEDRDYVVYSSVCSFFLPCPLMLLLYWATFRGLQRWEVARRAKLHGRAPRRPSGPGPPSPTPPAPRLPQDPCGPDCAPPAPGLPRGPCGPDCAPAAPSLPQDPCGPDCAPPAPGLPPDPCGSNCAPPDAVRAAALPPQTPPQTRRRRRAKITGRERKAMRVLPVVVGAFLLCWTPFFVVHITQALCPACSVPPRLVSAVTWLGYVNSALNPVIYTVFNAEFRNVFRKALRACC

[4] = target: D2 (Homo sapiens, UniProt P14416); assay: D2 functional assay; assay type: cell-based; conditions: performed at the PDSP
[5] = target: T1, 5-HT2B receptor; assay: 5-HT2B functional assay, intracellular calcium mobilization; assay type: cell-based; conditions: FLIPR Tetra, n = 5
[6] = target: T1, 5-HT2B receptor; assay: 5-HT2B functional antagonism against serotonin; assay type: cell-based
[7] = target: T1, 5-HT2B receptor; conditions: binding and functional assays; cited from earlier work
[8] = test system: 5-HT2B receptors in porcine pulmonary arteries; conditions: cited from earlier work

T1 sequence (P41595 whole entry): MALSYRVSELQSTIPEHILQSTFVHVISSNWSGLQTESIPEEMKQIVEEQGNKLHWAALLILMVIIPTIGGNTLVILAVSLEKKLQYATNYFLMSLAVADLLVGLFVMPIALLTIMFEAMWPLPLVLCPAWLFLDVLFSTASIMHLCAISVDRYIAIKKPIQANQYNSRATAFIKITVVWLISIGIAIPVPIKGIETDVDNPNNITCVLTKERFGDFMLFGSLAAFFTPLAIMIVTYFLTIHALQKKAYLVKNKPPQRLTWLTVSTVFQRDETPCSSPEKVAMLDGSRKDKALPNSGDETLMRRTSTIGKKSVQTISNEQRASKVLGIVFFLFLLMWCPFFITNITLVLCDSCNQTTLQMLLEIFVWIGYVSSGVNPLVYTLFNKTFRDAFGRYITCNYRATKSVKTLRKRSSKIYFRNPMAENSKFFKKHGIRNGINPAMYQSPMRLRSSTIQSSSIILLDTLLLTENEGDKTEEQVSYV
Chain of D2 (P14416 whole entry): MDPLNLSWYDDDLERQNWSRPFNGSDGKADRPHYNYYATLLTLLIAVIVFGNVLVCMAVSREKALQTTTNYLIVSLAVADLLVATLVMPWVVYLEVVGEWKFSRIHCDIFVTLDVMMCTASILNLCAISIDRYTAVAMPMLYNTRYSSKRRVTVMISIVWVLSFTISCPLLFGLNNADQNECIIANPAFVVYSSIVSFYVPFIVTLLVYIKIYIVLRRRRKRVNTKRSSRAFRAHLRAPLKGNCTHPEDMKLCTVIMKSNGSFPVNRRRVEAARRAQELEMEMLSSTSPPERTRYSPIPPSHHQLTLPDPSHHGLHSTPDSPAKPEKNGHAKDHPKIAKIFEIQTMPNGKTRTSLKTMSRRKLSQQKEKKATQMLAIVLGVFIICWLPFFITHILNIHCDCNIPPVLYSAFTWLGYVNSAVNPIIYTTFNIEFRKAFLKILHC

SMILES | Functionality at the 5-HT2B receptor (IP1 assay) [2] | Functionality at the human 5-HT2B receptor (calcium mobilization assay) [5] | Antagonism against serotonin at the 5-HT2B receptor [6] | also measured
CSC[C@@H]1C[C@@H]2c3cccc4[nH]cc(c34)C[C@H]2N(C)C1 [6-methylpergolide] | – | – | – | Functionality at the D2 receptor [1]: full agonists
C=CCN1C[C@H](C(=O)N(CCCN2CCOCC2)C(=O)NCC)C[C@@H]2c3cccc4[nH]cc(c34)C[C@H]21 [Compound 1] | full agonists | – | – | –
CCNC(=O)N(CCCN(C)C)C(=O)[C@@H]1C[C@@H]2c3cccc4c3c(cn4C)C[C@H]2N(C)C1 [Compound 9, 1,6-Dimethylcabergoline] | no agonism | no agonism | potent antagonists | D4 functionality [3]: full D4 agonist; D2 functionality [4]: potent but partial D2 agonist
CN(C)CCCNC(=O)[C@@H]1C[C@@H]2c3cccc4c3c(cn4C)C[C@H]2N(C)C1 [Compound 14] | minimal to no agonism | minimal to no agonism | potent antagonists | –
COC(OC)[C@@H]1C[C@@H]2c3cccc4c3c(cn4C)C[C@H]2N(C)C1 [Compound 15] | no agonism | no agonism | potent antagonists | –
C=CCN1C[C@H](C(=O)N(CCCN(C)C)C(=O)NCC)C[C@@H]2c3cccc4[nH]cc(c34)C[C@H]21 [cabergoline, reference compound] | full agonists | – | – | –
CC[C@@H](CO)NC(=O)[C@@H]1C=C2c3cccc4[nH]cc(c34)C[C@H]2N(C)C1 [methylergonovine] | – | – | – | Activity at the 5-HT2B receptor [7]: partial agonist
CC[C@@H](CO)NC(=O)[C@@H]1C=C2c3cccc4c3c(cn4C)C[C@H]2N(C)C1 [methysergide] | – | – | – | Activity at the 5-HT2B receptor [7]: significantly weaker activity
CCCN1C[C@H](CSC)C[C@@H]2c3cccc4[nH]cc(c34)C[C@H]21 [pergolide] | – | – | – | Functionality at 5-HT2B receptors in porcine pulmonary arteries [8]: functional agonist; Functionality at the D2 receptor [1]: full agonists
